Tested on: human bladder smooth muscle
Assay: Relaxing effect on resting tension of isolated human bladder smooth muscle strips
Type: cell-based
Settings: drug added cumulatively about every 5 minutes, 0 % = 10^-5 M forskolin, Figure 1
Procedure: Measurement of the contractile force of human bladder smooth muscle strips (1) Smooth muscle preparations Human bladders were obtained from patients undergoing cystectomy and were carefully dissected free from the surrounding fat and mucosa. Preparations were prepared by cutting the bladder smooth muscle longitudinally into about 1.5 cm in length and about 3 mm in width and used. […] Conditions for measurement; The bathing solution was maintained at 37 °C and gassed with a mixture of 95 % O2 and 5 % CO2. Drug Treatment; The drug was cumulatively added about every 5 minutes. Evaluation of the drug effects; The drug-induced relaxation was evaluated. The tension before the drug treatment is indicated as 100 %, and the tension after treatment with 10^-5 M forskolin which produces maximal bladder relaxation is indicated as 0 %. According to the method described above, the bladder relaxing effects of the following drugs were measured using human bladder smooth muscle.

Row | SMILES | relaxing effects on bladder smooth muscle
1 | CC(C)(C)NCC(O)COc1cccc2[nH]c(=O)[nH]c12.Cl (racemic) [CGP-12,177A hydrochloride, (±)-4-[3-[(1,1-dimethylethyl)-amino]-2-hydroxypropoxy]-1,3-dihydro-2H-benzimidazol-2-on hydrochloride] | apparent relaxing effects
2 | CC(C)NCC(O)c1ccc(O)c(O)c1 (centres unmarked) [isoproterenol] | apparent relaxing effects

From patent EP0958835A1, “PREVENTIVE/REMEDY FOR FREQUENT URINATION AND URINARY INCONTINENCE” (Kissei Pharmaceutical Co., Ltd., priority 1996, dated 1998)
